From patent publication US20250011285A1, “CYP11A1 INHIBITORS” (ORION CORPORATION, priority 2021, published 2025) come the findings set out here.

By IC50 is commonly meant the concentration that gives 50% inhibition.

Each structure is given as a SMILES string.

The target of this test is T1, CYP11A1 (Homo sapiens, UniProt P05108).
T1 construct: human H295R adrenocortical carcinoma cell line was used as source of enzyme; endogenous in cells; host or cells: H295R human adrenocortical carcinoma cells
T1 sequence (P05108 40-521): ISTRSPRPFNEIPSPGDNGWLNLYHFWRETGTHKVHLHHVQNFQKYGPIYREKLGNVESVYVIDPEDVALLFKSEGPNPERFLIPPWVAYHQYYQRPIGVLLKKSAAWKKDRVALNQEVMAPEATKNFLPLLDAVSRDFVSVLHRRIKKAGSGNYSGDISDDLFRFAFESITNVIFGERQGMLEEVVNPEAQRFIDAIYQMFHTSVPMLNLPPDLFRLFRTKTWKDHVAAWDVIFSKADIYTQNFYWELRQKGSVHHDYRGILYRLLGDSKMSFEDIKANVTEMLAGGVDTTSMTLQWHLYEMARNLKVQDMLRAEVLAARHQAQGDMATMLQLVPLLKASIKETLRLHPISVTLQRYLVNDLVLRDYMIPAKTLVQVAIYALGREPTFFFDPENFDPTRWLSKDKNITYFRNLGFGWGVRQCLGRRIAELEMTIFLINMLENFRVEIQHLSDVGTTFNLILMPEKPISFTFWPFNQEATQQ
Description: CYP11A1 inhibition, isocaproic acid release assay (IARA) in H295R cells. It counts as cell-based. The following applies: human H295R adrenocortical carcinoma cells treated three days, 3 nM [24,25-3H]-labelled cholesterol, 1% DMSO; read-out: IC50 on CYP11A1 inhibition (Group). On the procedure:
The ability of the test compounds to inhibit conversion of cholesterol to pregnenolone and isocaproic acid was measured by modification of isocaproic acid release assay (IARA) described by Ruangwises et al. (Biology of Reproduction 1991; 45(1):143-50) except that human H295R adrenocortical carcinoma cell line was used as source of enzyme and extraction was done with dextran-coated charcoal suspension (Isomaa, V. et al., Endocrinology 1982; 111(3):833-843). […] To determine the half maximal inhibitory concentration (IC50) of the test compounds on CYP11A1 inhibition, the cells were treated for three days with increasing concentrations of the test compounds in the presence of 3 nM [24,25-3H]-labelled cholesterol (American Radiolabelled Chemicals).
The final DMSO concentration was 1%. Cell culture medium was extracted with dextran-coated charcoal suspension and the radiolabelled isocaproic acid was determined by mixing 100 μl of supernatant fraction in 200 μl of scintillation fluid (OptiPhase SuperMix, Perkin Elmer). Radioactivity was measured using a Microbeta scintillation counter (1450 MicroBeta Trilux, Wallac). All the test compounds were studied at 10 concentrations in duplicates.
Regarding `COc1cc(CN2Cc3ccc(SC)cc3C2)ccc1OCc1ccc(C(=O)N(C)C)cc1` [Compound 34, 4-((2-Methoxy-4-((5-(methylthio)isoindolin-2-yl)methyl)phenoxy)methyl)-N,N-dimethylbenzamide], the IC50 was < 0.15 µM.
Regarding `COCCN(C)C(=O)c1ccc(COc2ccc(CN3Cc4ccccc4C3)cc2OC)cc1` [Compound 35, 4-((4-(Isoindolin-2-ylmethyl)-2-methoxyphenoxy)methyl)-N-(2-methoxyethyl)-N-methylbenzamide], the IC50 is < 0.15 µM.
As to `COc1cc(CN2Cc3ccccc3C2)ccc1OCc1ccc(C(=O)N(C)CCOC(C)=O)cc1` [Compound 36, 2-(4-((4-(Isoindolin-2-ylmethyl)-2-methoxyphenoxy)methyl)-N-methyl-benzamido)ethyl acetate], the 50% inhibitory concentration (IC50) lay in the range of 0.151 to 0.35 µM.
Consider `COCCc1cc(CN2Cc3ccccc3C2)ccc1OCC1CCN(S(C)(=O)=O)CC1` [Compound 37, 2-(3-(2-Methoxyethyl)-4-((1-(methylsulfonyl)piperidin-4-yl)methoxy)benzyl)-isoindoline], for which the half-inhibitory concentration (IC50) is 0.151 to 0.35 µM.
As for `CS(=O)(=O)N1CCC(COc2ccc(CN3Cc4ccccc4C3)c3cn[nH]c23)CC1` [Compound 38, 4-(Isoindolin-2-ylmethyl)-7-((1-(methylsulfonyl)piperidin-4-yl)methoxy)-1H-indazole], the figure is < 0.15 µM; as for `COC(=O)c1ccc(COc2ccc(CN3Cc4ccccc4C3)cc2[N+](=O)[O-])cc1` [Compound 39, Methyl 4-((4-(isoindolin-2-ylmethyl)-2-nitrophenoxy)methyl)benzoate], 0.351 to 1.5 µM.
With `CN(C)C(=O)c1ccc(COc2ccc(CN3Cc4ccccc4C3)cc2[N+](=O)[O-])cc1` [Compound 40, 4-((4-(isoindolin-2-ylmethyl)-2-nitrophenoxy)methyl)-N,N-dimethylbenzamide] the figure was < 0.15 µM; with `CN(C)C(=O)c1ccc(COc2ccc(CN3Cc4ccccc4C3)c3cccnc23)cc1` [Compound 41, 4-(((5-(Isoindolin-2-ylmethyl)quinolin-8-yl)oxy)methyl)-N,N-dimethyl-benzamide], < 0.15 µM; with `CC(=O)c1cc(CN2Cc3ccccc3C2)ccc1OCc1ccc(C(=O)N(C)C)cc1` [Compound 42, 4-((2-Acetyl-4-(isoindolin-2-ylmethyl)phenoxy)methyl)-N,N-dimethylbenzamide], < 0.15 µM.
As for `CCS(=O)(=O)c1ccc(COc2ccc(CN3Cc4ccccc4C3)cc2C(C)=O)cc1` [Compound 43, 1-(2-((4-(Ethylsulfonyl)benzyl)oxy)-5-(isoindolin-2-ylmethyl)phenyl)ethan-1-one], the figure is < 0.15 µM; as for `CS(=N)(=O)c1ccc(COc2ccc(CN3Cc4ccccc4C3)c3cccnc23)cc1` (stereo not shown) [Compound 44, Imino(4-(((5-(isoindolin-2-ylmethyl)quinolin-8-yl)oxy)methyl)phenyl)(methyl)-λ^6-sulfanone], < 0.15 µM.
`CS(=N)(=O)c1ccc(COc2ccc(CN3Cc4ccccc4C3)c3ocnc23)cc1` (stereo not shown) [Compound 45, Imino(4-(((7-(isoindolin-2-ylmethyl)benzo[d]oxazol-4-yl)oxy)methyl)phenyl)-(methyl)-λ^6-sulfanone]: the 50% inhibitory concentration (IC50) fell in the range of 0.351 to 1.5 µM.
With `CS(=O)(=O)N1CCC(COc2ccc(CN3Cc4ccccc4C3)c3ncoc23)CC1` [Compound 46, 4-(Isoindolin-2-ylmethyl)-7-((1-(methylsulfonyl)piperidin-4-yl)methoxy)-benzo[d]oxazole] the figure was 0.351 to 1.5 µM; with `Cn1ncc2c(CN3Cc4ccccc4C3)ccc(OCC3CCN(S(C)(=O)=O)CC3)c21` [Compound 47, 4-(Isoindolin-2-ylmethyl)-1-methyl-7-((1-(methylsulfonyl)piperidin-4-yl)-methoxy)-1H-indazole], < 0.15 µM; with `CC(=O)c1cc(CN2Cc3ccccc3C2)ccc1OCC1CCN(S(C)(=O)=O)CC1` [Compound 48, 1-(5-(Isoindolin-2-ylmethyl)-2-((1-(methylsulfonyl)piperidin-4-yl)methoxy)-phenyl)ethan-1-one], < 0.15 µM.
Turning to `CCC(=O)N1CCC(COc2ccc(CN3Cc4ccccc4C3)cc2C(C)=O)CC1` [Compound 49, 1-(4-((2-Acetyl-4-(isoindolin-2-ylmethyl)phenoxy)methyl)piperidin-1-yl)propan-1-one], the IC50 is 0.151 to 0.35 µM.
For the molecule `CC(=O)c1cc(CN2Cc3ccccc3C2)ccc1OCC1CCC(S(C)(=O)=O)CC1` (stereo not shown) [Compound 50, 1-(5-(Isoindolin-2-ylmethyl)-2-((4-(methylsulfonyl)cyclohexyl)methoxy)-phenyl)ethan-1-one], the IC50 lay within 0.151 to 0.35 µM.
As to `CS(=O)(=O)N1CCC(COc2ccc(CN3Cc4ccccc4C3)c3cccnc23)CC1` [Compound 51, 5-(Isoindolin-2-ylmethyl)-8-((1-(methylsulfonyl)piperidin-4-yl)methoxy)-quinoline], the IC50 is < 0.15 µM.
With `CN(C)C(=O)c1ccc(COc2ccc(CN3Cc4ccccc4C3)cc2N)cc1` [Compound 52, 4-((2-Amino-4-(isoindolin-2-ylmethyl)phenoxy)methyl)-N,N-dimethyl-benzamide] the figure was 0.351 to 1.5 µM; with `CN(C)C(=O)c1ccc(COc2ccc(CN3Cc4ccccc4C3)cc2NS(C)(=O)=O)cc1` [Compound 53, 4-((4-(Isoindolin-2-ylmethyl)-2-(methylsulfonamido)phenoxy)methyl)-N,N-dimethylbenzamide], 0.351 to 1.5 µM; with `CS(=O)(=O)c1ccc(COc2ccc(CN3Cc4ccccc4C3)cc2C(N)=O)cc1` [Compound 54, 5-(Isoindolin-2-ylmethyl)-2-((4-(methylsulfonyl)benzyl)oxy)benzamide], < 0.15 µM.
As for `CS(=O)(=O)N1CCC(COc2ccc(CN3Cc4ccccc4C3)cc2C(F)(F)F)CC1` [Compound 56], the figure is 0.151 to 0.35 µM.
